# Test results taken from ChEMBL document CHEMBL5715952 (Oncotarget, 2015).
# The source made the active and inactive calls. The calls are words filed in the database; no cut-off is given here.
# Experiments:
# [1] = target: T1, Bromodomain and extra-terminal motif (BET) (Homo sapiens) (UniProt P25440+O60885+Q58F21+Q15059); conditions: Bortezomib-resistant ANBL6 cell, dose lower 40.0 nM, dose upper […]
# [2] = tested on: Bortezomib-resistant ANBL6; assay: Induction of apoptosis in human bortezomib-resistant ANBL6 cells assessed as viable at 1600 nM incubated for 72 hrs by annexin V and 7-AAD staining by flow cytometry analysis (Rvb=80 %); type: functional
# [3] = target: T1, Bromodomain and extra-terminal motif (BET) (Homo sapiens); conditions: Bortezomib-resistant ANBL6 cell, dose lower 40.0 nM, dose upper […]; remark: listed apart in the source
# [4] = tested on: Bortezomib-resistant ANBL6; assay: Synergistic apoptosis activity in human bortezomib-resistant ANBL6 cells assessed as early apoptosis at 1600 nM incubated for 24 hrs in the presence of BTZ by annexin V and 7-AAD staining by flow cytometry analysis; type: functional
# RPMI-8226 [5] = assay: Synergistic antiproliferative activity against wild-type human RPMI-8226 cells assessed as reduction in cell viability at ED75 incubated for 72 hrs in presence of bortezomib by MTS assay; type: functional
# [6] = tested on: Bortezomib-resistant ANBL6; assay: Induction of apoptosis in human bortezomib-resistant ANBL6 cells assessed as early apoptosis at 160 nM incubated for 72 hrs by annexin V and 7-AAD staining by flow cytometry analysis (Rvb=15 %); type: functional
# ANBL-6 [7] = assay: Induction of apoptosis in wild-type human ANBL-6 cells assessed as viable at 1600 nM incubated for 72 hrs by annexin V and 7-AAD staining by flow cytometry analysis (Rvb=59 %); type: functional
# ANBL-6 [8] = assay: Synergistic apoptosis activity in wild-type human ANBL-6 cells assessed as late apoptosis at 1600 nM incubated for 72 hrs in the presence of BTZ by annexin V and 7-AAD staining by flow cytometry analysis (Rvb=26 %); type: functional
# [9] = tested on: Bortezomib-resistant ANBL6; assay: Synergistic apoptosis activity in human bortezomib-resistant ANBL6 cells assessed as early apoptosis at 1600 nM incubated for 72 hrs in the presence of BTZ by annexin V and 7-AAD staining by flow cytometry analysis (Rvb=15 %); type: functional
# [10] = Synergistic antiproliferative activity against human melphalan-resistant RPMI-8226 cells assessed as reduction in cell viability at ED90 incubated for 72 hrs in presence of bortezomib by MTS assay; type: functional, Melphalan-resistant RPMI-8226 cell
# ANBL-6 [11] = assay: Synergistic apoptosis activity in wild-type human ANBL-6 cells assessed as early apoptosis at 1600 nM incubated for 72 hrs in the presence of BTZ by annexin V and 7-AAD staining by flow cytometry analysis (Rvb=14 %); type: functional
# [12] = target: T1, Bromodomain and extra-terminal motif (BET) (Homo sapiens); conditions: ANBL-6, dose lower 40.0 nM, dose upper […]
# [13] = Synergistic antiproliferative activity against human ANBL-6 BR resistant cells assessed as reduction in cell viability at ED50 incubated for 72 hrs in presence of bortezomib by MTS assay; type: functional
# [14] = target: T1, Bromodomain and extra-terminal motif (BET) (Homo sapiens); conditions: ANBL-6, dose lower 40.0 nM, dose upper […]; remark: listed apart in the source
# ANBL-6 [15] = assay: Synergistic apoptosis activity in wild-type human ANBL-6 cells assessed as early apoptosis at 1600 nM incubated for 48 hrs in the presence of BTZ by annexin V and 7-AAD staining by flow cytometry analysis; type: functional
# RPMI-8226 [16] = assay: Synergistic antiproliferative activity against wild-type human RPMI-8226 cells assessed as reduction in cell viability at ED50 incubated for 72 hrs in presence of bortezomib by MTS assay; type: functional
# ANBL-6 [17] = assay: Induction of apoptosis in wild-type human ANBL-6 cells assessed as early apoptosis at 40 nM incubated for 72 hrs by annexin V and 7-AAD staining by flow cytometry analysis (Rvb=14 %); type: functional
# [18] = tested on: Bortezomib-resistant ANBL6; assay: Induction of apoptosis in human bortezomib-resistant ANBL6 cells assessed as late apoptosis at 160 nM incubated for 72 hrs by annexin V and 7-AAD staining by flow cytometry analysis (Rvb=5 %); type: functional
# ANBL-6 [19] = assay: Synergistic antiproliferative activity against wild-type human ANBL-6 cells assessed as reduction in cell viability at ED75 incubated for 72 hrs in presence of bortezomib by MTS assay; type: functional
# [20] = tested on: Bortezomib-resistant ANBL6; assay: Induction of apoptosis in human bortezomib-resistant ANBL6 cells assessed as viable at 160 nM incubated for 72 hrs by annexin V and 7-AAD staining by flow cytometry analysis (Rvb=80 %); type: functional
# [21] = target: T1, Bromodomain and extra-terminal motif (BET) (Homo sapiens); conditions: ANBL-6, dose lower 40.0 nM, dose upper […]; remark: listed apart in the source
# [22] = tested on: Bortezomib-resistant ANBL6; assay: Synergistic apoptosis activity in human bortezomib-resistant ANBL6 cells assessed as early apoptosis at 1600 nM incubated for 72 hrs in the presence of BTZ by annexin V and 7-AAD staining by flow cytometry analysis; type: functional
# [23] = tested on: Bortezomib-resistant ANBL6; assay: Induction of apoptosis in human bortezomib-resistant ANBL6 cells assessed as early apoptosis at 1600 nM incubated for 72 hrs by annexin V and 7-AAD staining by flow cytometry analysis (Rvb=15 %); type: functional
# [24] = tested on: Bortezomib-resistant ANBL6; assay: Synergistic apoptosis activity in human bortezomib-resistant ANBL6 cells assessed as early apoptosis at 1600 nM incubated for 48 hrs in the presence of BTZ by annexin V and 7-AAD staining by flow cytometry analysis; type: functional
# ANBL-6 [25] = assay: Induction of apoptosis in wild-type human ANBL-6 cells assessed as late apoptosis at 1600 nM incubated for 72 hrs by annexin V and 7-AAD staining by flow cytometry analysis (Rvb=26 %); type: functional
# [26] = tested on: Bortezomib-resistant ANBL6; assay: Induction of apoptosis in human bortezomib-resistant ANBL6 cells assessed as late apoptosis at 1600 nM incubated for 72 hrs by annexin V and 7-AAD staining by flow cytometry analysis (Rvb=5 %); type: functional
# ANBL-6 [27] = assay: Induction of apoptosis in wild-type human ANBL-6 cells assessed as late apoptosis at 40 nM incubated for 72 hrs by annexin V and 7-AAD staining by flow cytometry analysis (Rvb=26 %); type: functional
# [28] = tested on: Bortezomib-resistant ANBL6; assay: Synergistic apoptosis activity in human bortezomib-resistant ANBL6 cells assessed as viable at 1600 nM incubated for 72 hrs in the presence of BTZ by annexin V and 7-AAD staining by flow cytometry analysis (Rvb=80 %); type: functional
# [29] = target: T1, Bromodomain and extra-terminal motif (BET) (Homo sapiens); conditions: Bortezomib-resistant ANBL6 cell, dose lower 40.0 nM, dose upper […]; remark: listed apart in the source
# [30] = Synergistic antiproliferative activity against human melphalan-resistant RPMI-8226 cells assessed as reduction in cell viability at ED50 incubated for 72 hrs in presence of bortezomib by MTS assay; type: functional, Melphalan-resistant RPMI-8226 cell
# ANBL-6 [31] = assay: Synergistic antiproliferative activity against wild-type human ANBL-6 cells assessed as reduction in cell viability at ED90 incubated for 72 hrs in presence of bortezomib by MTS assay; type: functional
# ANBL-6 [32] = assay: Synergistic apoptosis activity in wild-type human ANBL-6 cells assessed as early apoptosis at 1600 nM incubated for 72 hrs in the presence of BTZ by annexin V and 7-AAD staining by flow cytometry analysis; type: functional
smiles,measurement,setting,value
Cc1sc2c(c1C)C(c1ccc(Cl)cc1)=N[C@@H](CC(N)=O)c1nnc(C)n1-2,inhibition,[1],Active
same,Activity,[2],54%
same,inhibition,[3],Dose-Dependent Effect
same,CI,[4],0.99
same,CI,RPMI-8226 [5],1.15
same,Activity,[6],18%
same,Activity,ANBL-6 [7],31%
same,Activity,ANBL-6 [8],10%
same,Activity,[9],67%
same,CI,[10],0.569
same,Activity,ANBL-6 [11],84%
same,inhibition,[12],inactive
same,CI,[13],0.718
same,inhibition,[14],Active
same,CI,ANBL-6 [15],0.24
same,CI,RPMI-8226 [16],1.367
same,Activity,ANBL-6 [17],12%
same,Activity,[18],4%
same,CI,ANBL-6 [19],0.692
same,Activity,[20],78%
same,inhibition,[21],Active
same,CI,[22],0.87
same,Activity,[23],30%
same,CI,[24],0.77
same,Activity,ANBL-6 [25],31%
same,Activity,[26],16%
same,Activity,ANBL-6 [27],28%
same,Activity,[28],23%
same,inhibition,[29],Active
same,CI,[30],0.925
same,CI,ANBL-6 [31],0.614
same,CI,ANBL-6 [32],0.44
